Consider 16 molecules from ChEMBL document CHEMBL1146969, “Stereoselective synthesis and fungicidal activities of (E)-alpha-(methoxyimino)-benzeneacetate derivatives containing 1,3,4-oxadiazole ring” (2006).

Holding throughout (type): functional
One assay deals with Fusarium graminearum. Kind of assay: Antifungal activity against Gibberella zeae at 50 ug/ml.
The subject of another assay is Bipolaris maydis. Kind of assay: Antifungal activity against Bipolaris maydis at 50 ug/ml.
A further assay deals with Thanatephorus cucumeris. Kind of assay: Antifungal activity against Rhizoctonia solani at 50 ug/ml.
For assay [1], the system named is Botryosphaeria berengeriana. The assay is described as follows: Antifungal activity against Physalospora piricola at 50 ug/ml.
In the next assay the test system is Botrytis cinerea. The assay is described as follows: Antifungal activity against Botrytis cinereapers at 50 ug/ml.

The term inhibition denotes how much of the control response was suppressed. Regarding `CO/N=C(/C(=O)OC)c1ccccc1CSc1nnc(-c2ccc(OCc3ccccc3)cc2)o1`, the inhibition at 50 µg/mL with Fusarium graminearum was determined as 89.2%; in the assay on Bipolaris maydis, 95%; in the assay with Thanatephorus cucumeris, 98%; in assay [1], 96.9%; in the assay on Botrytis cinerea it was 90.6%.

In the case of `CO/N=C(/C(=O)OC)c1ccccc1CSc1nnc(-c2ccccc2)o1`, the inhibition at 50 µg/mL in the assay on Fusarium graminearum stood at 79.4%; in the assay with Bipolaris maydis, 88%; in the assay on Thanatephorus cucumeris, 92.4%; in assay [1], 94.9%; in the assay on Botrytis cinerea, 97.6%.

For `CO/N=C(/C(=O)OC)c1ccccc1COc1ccccc1C` [KRESOXIM-METHYL], the inhibition at 50 µg/mL in the assay on Fusarium graminearum was found to be 96.8%; with Bipolaris maydis it was 90.6%; in the assay with Thanatephorus cucumeris, 66.1%; in assay [1], 98.5%; with Botrytis cinerea, 97.2%.

`CO/N=C(/C(=O)OC)c1ccccc1CSc1nnc(-c2cccc(Cl)c2)o1`: the inhibition at 50 µg/mL with Fusarium graminearum turned out to be 96.9%; in the assay with Bipolaris maydis it was 90.9%; in the assay with Thanatephorus cucumeris, 94.4%; in assay [1] it was 92.6%; in the assay with Botrytis cinerea, 85.4%.

As to `CO/N=C(/C(=O)OC)c1ccccc1CSc1nnc(-c2ccccc2F)o1`, the inhibition at 50 µg/mL was found to be 98% in the assay with Fusarium graminearum; 92.3% in the assay with Bipolaris maydis; 92.6% with Thanatephorus cucumeris; 100% in assay [1]; 97.6% in the assay on Botrytis cinerea.

For the molecule `CO/N=C(/C(=O)OC)c1ccccc1CSc1nnc(-c2ccc(Br)cc2F)o1`, the inhibition at 50 µg/mL in the assay on Fusarium graminearum stood at 85.7%; in the assay on Bipolaris maydis, 92.9%; in the assay with Thanatephorus cucumeris, 97.9%; in assay [1] it was 100%; in the assay with Botrytis cinerea, 100%.

Turning to `CO/N=C(/C(=O)OC)c1ccccc1CSc1nnc(-c2ccc(OC)cc2)o1`, the inhibition at 50 µg/mL in the assay with Fusarium graminearum is 85.7%; with Bipolaris maydis it was 92.5%; in the assay on Thanatephorus cucumeris, 91.8%; in assay [1] it was 93.8%; in the assay on Botrytis cinerea, 94.2%.

Consider `CO/N=C(/C(=O)OC)c1ccccc1CSc1nnc(-c2cc(Cl)ccc2Cl)o1`, for which the inhibition at 50 µg/mL was found to be 90.6% in the assay on Fusarium graminearum; 82.7% in the assay with Bipolaris maydis; 97% in the assay with Thanatephorus cucumeris; 100% in assay [1]; 88.5% in the assay on Botrytis cinerea.

`CO/N=C(/C(=O)OC)c1ccccc1CSc1nnc(-c2cc(F)c(Cl)cc2Cl)o1`: the inhibition at 50 µg/mL with Fusarium graminearum is 88.6%; in the assay with Bipolaris maydis, 81.6%; in the assay on Thanatephorus cucumeris, 97.8%; in assay [1], 100%; in the assay with Botrytis cinerea, 98.8%.

For the molecule `CO/N=C(/C(=O)OC)c1ccccc1CSc1nnc(-c2ccc(F)cc2)o1`, the inhibition at 50 µg/mL in the assay with Fusarium graminearum came out at 98.6%; in the assay with Bipolaris maydis, 91.7%; with Thanatephorus cucumeris, 97.9%; in assay [1], 100%; in the assay with Botrytis cinerea, 100%.

Turning to `CO/N=C(/C(=O)OC)c1ccccc1CSc1nnc(-c2cccc(F)c2F)o1`, the inhibition at 50 µg/mL was 98.6% in the assay with Fusarium graminearum; 96.4% with Bipolaris maydis; 100% with Thanatephorus cucumeris; 100% in assay [1]; 100% in the assay with Botrytis cinerea.

In the case of `CO/N=C(/C(=O)OC)c1ccccc1CSc1nnc(-c2ccc(C(F)(F)F)cc2)o1`, the inhibition at 50 µg/mL with Fusarium graminearum stood at 93.8%; with Bipolaris maydis it was 81.8%; in the assay with Thanatephorus cucumeris, 95.6%; in assay [1], 100%; in the assay on Botrytis cinerea, 84.6%.

As to `CO/N=C(/C(=O)OC)c1ccccc1CSc1nnc(-c2ccccc2I)o1`, the inhibition at 50 µg/mL is 98.4% in the assay with Fusarium graminearum; 86.4% in the assay with Bipolaris maydis; 90.2% in the assay with Thanatephorus cucumeris; 96.3% in assay [1]; 96.2% with Botrytis cinerea.

Turning to `CO/N=C(/C(=O)OC)c1ccccc1CSc1nnc(-c2ccc([N+](=O)[O-])cc2)o1`, the inhibition at 50 µg/mL was 92.5% in the assay with Fusarium graminearum; 86.4% in the assay with Bipolaris maydis; 85.9% with Thanatephorus cucumeris; 96.3% in assay [1]; 88.5% in the assay with Botrytis cinerea.

For the molecule `CO/N=C(/C(=O)OC)c1ccccc1CSc1nnc(-c2cccc(Cl)c2Cl)o1`, the inhibition at 50 µg/mL in the assay with Fusarium graminearum came to 84.3%; in the assay on Bipolaris maydis it was 84%; in the assay on Thanatephorus cucumeris it was 91.6%; in assay [1] it was 96.7%; with Botrytis cinerea, 83.3%.

As to `CO/N=C(/C(=O)OC)c1ccccc1CSc1nnc(-c2ccc(Cl)cc2Cl)o1`, the inhibition at 50 µg/mL in the assay on Fusarium graminearum worked out at 74.3%; in the assay with Bipolaris maydis, 85.7%; with Thanatephorus cucumeris, 92.6%; in assay [1], 88.9%; in the assay on Botrytis cinerea, 98.8%.
